Earlier results, collected in paper PMC9869109 (Angewandte Chemie (International ed. in English), 2022).

System: cell nuclei
Settings: previous result ref 12

NBD-llllpY
nuclear-targeting ability: weak nuclear-targeting ability
